Assay results published in patent US20260224588A1, “BENZODIAZEPINONE-DERIVED INHIBITORS OF EGFR AND HER2” (The Research Foundation for the State University of New York, priority 2023, published 2026).

Target: T1, FRK (Homo sapiens, UniProt P42685)
T1 construct: purchased Eurofins DiscoverX Corporation
Assay: KINOMEscan
Assay type: binding
Conditions: 1 μM of compound 4; read-out: POC

T1 sequence (P42685 whole entry): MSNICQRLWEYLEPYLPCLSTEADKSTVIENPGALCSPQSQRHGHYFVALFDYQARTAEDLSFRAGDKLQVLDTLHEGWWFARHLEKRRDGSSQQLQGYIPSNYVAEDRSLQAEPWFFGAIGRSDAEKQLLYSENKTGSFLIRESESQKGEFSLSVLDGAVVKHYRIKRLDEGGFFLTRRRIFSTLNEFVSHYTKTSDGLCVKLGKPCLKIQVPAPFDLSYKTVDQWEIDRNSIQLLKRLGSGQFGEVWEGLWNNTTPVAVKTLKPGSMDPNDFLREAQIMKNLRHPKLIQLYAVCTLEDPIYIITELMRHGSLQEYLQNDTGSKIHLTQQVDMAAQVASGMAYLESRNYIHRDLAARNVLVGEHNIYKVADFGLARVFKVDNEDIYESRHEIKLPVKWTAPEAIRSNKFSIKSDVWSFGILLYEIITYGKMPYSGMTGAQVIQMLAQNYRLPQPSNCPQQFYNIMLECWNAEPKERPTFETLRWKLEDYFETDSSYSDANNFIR

`C=CC(=O)Nc1ccc(OC)c(Nc2cc(-c3[nH]c(CC)nc3-c3cccc(NC(=O)c4cccc5c4NC(=O)c4ccccc4N5)c3)ccn2)c1` [Compound 4, N-(3-(5-(2-((5-Acrylamido-2-methoxyphenyl)amino)pyridin-4-yl)-2-ethyl-1H-imidazol-4-yl)phenyl)-11-oxo-10,11-dihydro-5H-dibenzo[b,e][1,4]diazepine-9-carboxamide] was tested, and the remaining binding at 1 µM was 20%.
